Measured values taken from patent US20080187492A1, “Drosophila Models For Diseases Affecting Learning and Memory” (priority 2004, published 2008).

Key:
[1] = tested on: FS (dFMR1-3+frame shifted rescue fragment) flies; assay: Conditioned courtship: short-term memory at 60 minutes, virgin female target, FS flies; type: in vivo, Drosophila melanogaster; settings: for short-term memory: concentration not given; for short term memory: LY341495 (400 nM), MPEP (20 μg/ml); for short-term memory at 60 minutes after training: adulthood alone or both
Experimental: (§1) Short-term memory. The model was further extended to encompass short-term memory at 60 minutes after training. After the one hour training session with a previously mated female, the female is removed and the male is placed in a holding chamber for 60 minutes, then subsequently placed in a testing chamber with a virgin female target to assess short-term memory (FIG. 4C). […] CT-CT FS flies court just as vigorously at 60 minutes after training as naive CT-CT FS flies. […] The FS groups that were treated with MPEP in development alone, adulthood alone or in both development and adulthood display experience dependent reduction of courtship activity at 60 minutes after training when compared to group matched naives M-M FS, p<0.0001, CT-M FS, p<0.0001 and M-CT FS, p<0.0001. […] Additionally, flies were tested for ability to discriminate between virgin and previously mated females (FIG. 4D).
(§2) In order to examine short-term memory at 60 minutes after training, after the one hour training session with a previously mated female, the female is removed and the male is placed in a holding chamber for 60 minutes, then subsequently placed in a testing chamber with a virgin female (FIG. 9B). […] CT-CT FS flies court just as vigorously at 60 minutes after training as naive CT-CT FS flies. […] The FS groups that were treated with MPEP in development alone, adulthood alone or in both development and adulthood display experience dependent reduction of courtship activity at 60 minutes after training when compared to group matched naives M-M FS.

[2] = tested on: FS flies lacking dfmr1 activity; assay: Short-term memory (60 mins) with mated female targets, FS flies; type: in vivo, Drosophila melanogaster; settings: for short-term memory, mated female target: 86 μM MPEP, 400 nM LY341495, 573 μM MPPG, 348 μM MTPG; for memory at 60 minutes post training, mated female target: 5 day old, 8.6 mM MPEP, 400 nM LY341495
Experimental: Effects of drug treatment on short-term memory (60 mins) in flies lacking dfmr1 activity with mated female targets. Short-term (60 min.) memory was measured in Rescue and FS flies that were either fed control food or underwent various drug treatments as described below. Short-term memory was measured by placing a trained male in a holding chamber for 60 minutes (after being trained for one hour with a previously mated female), then subsequently placing him in a testing chamber with a mated female target for a ten-minute courtship interval (C.I.). This C.I. was compared to the C.I. obtained for naïve courtship of a previously mated female, i.e., C.I. during the first 10 minutes of the training session with a previously mated female. Additionally, for reference the C.I. during the last 10 minutes of the training period was also determined. Numbers of flies are indicated above each bar for all groups. The levels of significance are indicated as follows; *=p<0.05; **=p<0.005; ***=p<0.0001.
Restoration of short-term memory with mGluR antagonists. To establish that the failure to observe memory was not due to a problem with recognizing or processing the appropriate cues from the virgin female target, we used a modified version of the conditioned courtship paradigm where the male is paired with a mated female target subsequent to training (Kane et al., 1997; Joiner and Griffith, 1997; Joiner and Griffith, 1999; Kamashev et al., 1999). Again, with pharmacologic treatment it is necessary to utilize more then one compound to confirm the specificity of the target, so in this case we used four mGluR antagonists. […] It is also important to note that the robust deficit in synaptic plasticity in FS flies, with regard to memory, is a critical extension of the previous models of Fragile X syndrome in model organisms, since this is one of the most prominent aspects of the human disorder. Furthermore, we have shown that antagonism of the mGluRs can restore synaptic plasticity in the Drosophila model of Fragile X syndrome.

FS mutant flies = assay: Fusion of mushroom body β-lobes (anti-FasII staining), FS mutant flies; type: in vivo, Drosophila melanogaster
Experimental: Histological analysis was performed on relevant experimental flies, showing the fusion of MB beta lobes and the rescue of these fusions with in mGluR antagonists (FIG. 18). Brains from (0-1 day old) dfmr1 mutant adult flies were stained with anti-fasciclin II (ID4) and a rhodamine-coupled secondary antibody. The α, β, & γ lobes of the MBs are clearly labeled with this antibody and appear normal in this mutant brain (Panel A). Panels B-E show a higher magnification of the β-lobes at the midline. […] Panels C-E show mutants brains displaying a C) “mild” (arrowhead), D) “moderate” and E) “severe” level of midline crossing by the […]. […] WT rescue flies are dfmr1 mutants containing one copy of the dfmr1 genomic rescue fragment. The number of brains examined are listed below each group.
Rescue of β-lobe fusions with mGluR antagonists. Previously it has been established that the mushroom bodies are involved in learning and memory in the conditioned courtship and the odor shock classical conditioning paradigms in Drosophila (deBelle and Heisenberg, 1994; Joiner and Griffith, 1999; McBride et al, 1999; Zars et al, 2000; Paschel and Preat, 2001). […] When labeled with anti-FasII, we observed a range of β-lobe fusion defects in brains derived from 0-2 day old FS mutant flies, but not Rescue flies (FIG. 18).
Since treatment of FS mutant flies with mGluR antagonists rescued the memory defects observed in these flies, we examined the effect of these treatments on the β-lobe fusion defect to determine if the rescue of the two phenotypes was correlated. We raised FS mutant flies in food containing 8.6 mM MPEP, 400 nM LY341495 or 350 mM MTPG, then examined the morphology of the MBs in 0-2 day old adults. […] For example, mild fusion defects were only observed in 18% of FS mutant brains raised in food containing 400 nM LY341495 (FIG. 18F). No effect was observed when these drugs were fed to Rescue flies during development (not shown).
If this is true, then we would expect that the behavioral rescue obtained by treating FS mutant flies these drugs during adulthood alone would lead to a similar morphological rescue. To test this hypothesis, we treated FS mutant flies with 8.6 mM MPEP for four days starting at eclosion, and then transferred them to normal food for 24 hours before examining the morphology of their MBs. For comparison we also examined the MBs of flies left in control food for five days. […] Thus it appears that rescue of this morphological defect is not absolutely necessary for the rescue of the memory defects observed in the dfmr1 mutant flies.

[3] = tested on: Rescue (dFMR1-3+wild type rescue fragment) flies; assay: Conditioned courtship: short-term memory at 60 minutes, virgin female target, Rescue flies; type: in vivo, Drosophila melanogaster; settings: for short term memory: MPEP (20 μg/ml), NaCl (5 and 50 mM), LY341495 (400 nM); for short-term memory at 60 minutes after training: adulthood or both
Experimental: as §1, §2

[4] = tested on: wild type human and Drosophila tau expressing flies; assay: Short term memory in tau over expressing Drosophila Alzheimer's model; type: in vivo; settings: for age dependent short term memory deficit: at 30 and 40 days
From the text: Two Drosophila Alzheimer's models are particularly useful. One uses over expression of tau (either human wild type or Drosophila wild type with a myc tag) driven in the mushroom bodies. Flies overexpressing tau have normal memory at 5 days of age (young adults) but an age dependent impairment of short-term and long term memory by 26 days of age.

[5] = raised in food containing 8.6 mM MPEP, 400 nM LY341495 or 350 mM MTPG, 0-2 day old adults

CC(N)(C(=O)O)c1ccc(-c2nnn[nH]2)cc1 (racemic) [MTPG, (RS)-α-methyl-4-tetrazolylphenylglycine]
short-term memory ([1]; 20-day-old): rescue short-term memory | short-term memory, mated female target [2]: demonstrated restoration of short-term memory | memory at 60 minutes post training, mated female target [2]: demonstrate memory at 60 minutes post training | β-lobe fusion defects (FS mutant flies; [5]): rescue of the β-lobe fusion defects

N[C@](CC1c2ccccc2Oc2ccccc21)(C(=O)O)[C@H]1C[C@@H]1C(=O)O [LY341495, (2S)-2-amino-2-[(1S,2S)-2-carboxycycloprop-1-yl]-3-(xanth-9-yl) propionic acid]
short-term memory ([1]; 20-day-old): rescue short-term memory | short term memory ([1]; 5 day old): restored short-term memory | short term memory ([3]; 5 day old): did not affect short term memory | short-term memory, mated female target [2]: demonstrated restoration of short-term memory | memory at 60 minutes post training, mated female target [2]: demonstrate memory at 60 minutes post training | FS mutant brains with (mild) fusion defects (FS mutant flies; raised in food containing 400 nM LY341495, untreated roughly 70%): 18% | β-lobe fusion defects (FS mutant flies; [5]): rescue of the β-lobe fusion defects | age dependent short term memory deficit [4]: can rescue the age dependent short term memory deficit | short term memory ([4]; treatment from day 30 to day 39, at 40 days of age): can restore short term memory

Cc1cccc(C#Cc2ccccc2)n1 [MPEP, 2-methyl-6-(phenylethynyl)pyridine]
short-term memory at 60 minutes after training ([1]; 20-day-old, MPEP in development alone): short-term memory is also rescued | short term memory ([1]; 5 day old): restored short-term memory | short-term memory at 60 minutes after training ([1]; 5 day old, MPEP 200 μg/ml in development alone, p<0.0001): short-term memory is also rescued | short-term memory at 60 minutes after training ([3]; 20-day-old, MPEP in development): does not adversely affect short-term memory | short-term memory at 60 minutes after training ([3]; 5 day old, MPEP 200 μg/ml in development): does not adversely affect short-term memory | short term memory ([3]; 5 day old): did not affect short term memory | short-term memory, mated female target [2]: demonstrated restoration of short-term memory | memory at 60 minutes post training, mated female target [2]: demonstrate memory at 60 minutes post training | β-lobe fusion defects (FS mutant flies; 8.6 mM MPEP for four days starting at eclosion (adulthood only)): did not observe any rescue of the β-lobe fusion defects | β-lobe fusion defects (FS mutant flies; [5]): rescue of the β-lobe fusion defects | age dependent short term memory deficit [4]: can rescue the age dependent short term memory deficit
